In patent US20070244190A1, “Neobritannilactone B and acetyl neobritannilactone B” (priority 2006, published 2007):

Experiments:
[1] = tested on: HT-29 cells; assay: Apoptosis (sub-G1) by flow cytometry; type: cell-based, human; details: 24 h, mean ± SE
Description: (§1) Cell Culture and Chemicals. The COLO 205 and HT 29 cell lines were isolated from human colon adenocarcinoma (ATCC CCL-222 and HTB-38); human promyelocytic leukemia (HL-60) cells were obtained from American Type Culture Collection (Rockville, Md.). The human AGS gastric carcinoma cell lines (CCRC 60102) were obtained from the Food Industry Research and Development Institute (Hsinchu, Taiwan). Cell lines were grown at 37° C. in 5% CO2 dioxide atmosphere in RPMI for COLO 205, HT-29, and HL-60 cells and DMEM/F12 for AGS cells, all supplemented with 10% heat-inactivated fetal bovine serum (GIBCO BRL, Grand Island, N.Y.) (100 units/mL of penicillin, 100 μg/mL of streptomycin), and 2 mM L-glutamine (GIBCO BRL). Selected compounds were dissolved in dimethyl sulfoxide (DMSO). Propidium iodide was obtained from Sigma Chemical Co. (St. Louis, Mo.).
(§2) Flow Cytometry. Human cancer cells (2×10^5) were cultured in 60-mm Petri dishes and incubated for 24 h. The apoptotic cells (sub-G1) in the selected compounds and treated cells were measured by flow cytometry analysis. Then cells were harvested, washed with PBS, resuspended in 200 μL of PBS, and fixed in 800 μL of iced 100% ethanol at −20° C. After being left to stand overnight, the cell pellets were collected by centrifugation, resuspended in 1 mL of hypotonic buffer (0.5% Triton X-100 in PBS and 0.5 μg/mL RNase), and incubated at 37° C. for 30 min. Then 1 mL of propidium iodide solution (50 μg/mL) was added and the mixture was allowed to stand on ice for 30 min. Fluorescence emitted from the propidium iodide-DNA complex was quantitated after excitation of the fluorescent dye by FACScan cytometry (Becton Dickinson, San Jose, Calif.).
(§3) The compounds isolated from Inula were tested for their effects on the apoptotic ratio in human cancer cells.

[2] = tested on: COLO 205 cells; assay: Apoptosis (sub-G1) by flow cytometry; type: cell-based, human; details: 24 h, mean ± SE
Description: as §1, §2, §3

[3] = tested on: HL-60 cells; assay: Apoptosis (sub-G1) by flow cytometry; type: cell-based, human; details: 24 h, mean ± SE
Description: as §1, §2, §3

[4] = tested on: AGS cells; assay: Apoptosis (sub-G1) by flow cytometry; type: cell-based, human; details: 24 h, mean ± SE
Description: as §1, §2, §3

[5] = tested on: AGS cells; assay: Sub-G1 flow cytometry (Example 3); type: cell-based, human; details: 24 h, FIG. 3
Description: as §2, with “AGS” for “Human cancer”, “The” for “The apoptotic cells (sub-G1) in the selected compounds and treated”, “then” for “measured by flow cytometry analysis. Then cells were”, “Next,” for “Then”, “added,” for “added”
The cytotoxic effects of NAB and ANAB in AGS cells were analyzed to assess their consistency with the specific changes that characterize apoptosis, such as DNA fragmentation. To investigate the induction of a sub-G1 cell population, the DNA content of AGS cells treated with various concentrations of NAB and ANAB was analyzed by flow cytometry. Cells were treated with NAB and ANAB, and stained with propidum iodide.

[6] = tested on: HT-29 cells; assay: Cell viability, trypan blue exclusion, 24 h; type: cell-based; details: HT-29, 24 h, mean ± SE, n=3, read-out: IC50, growth of human cancer cells
Description: as §1
(§4) Determination of Cell Viability. Human cancer cells were treated either with DMSO (0.01%) or the selected compounds (5-100 μM). Cell viability was determined at 24 h based on trypan blue exclusion assay. The viability percentage was calculated based on the percentage of unstained cells. Suspensions of cells were diluted 1:1 with 0.5% trypan blue solution. Stained and unstained cells were counted in a hemocytometer.

[7] = tested on: HL-60 cells; assay: Cell viability, trypan blue exclusion, 24 h; type: cell-based; details: HL-60, 24 h, mean ± SE, n=3, read-out: IC50, growth of human cancer cells
Description: as §1, §4

[8] = tested on: AGS cells; assay: Morphological changes by light microscopy; type: cell-based, human; details: 10 μM, within 24 h, FIG. 5
Excerpt: FIG. 5 provides light microscopic images showing the morphological changes of AGS cells, including the induction of apoptotic bodies from AGS cells, induced by NAB and ANAB.
(§5) Physiological cell death is characterized by apoptotic morphology, including chromatin condensation, membrane blebbing, internucleosome degradation of DNA, and apoptotic body formation. Nucleosomal DNA ladders visible on agarose gel after staining with ethidium bromide are typical of apoptotic cell samples. To investigate whether the cytotoxic effects of NAB and ANAB observed in AGS cells were due to the presence of apoptotic cell death, cells were treated with […] (0-25 μM) for 24 h and DNA fragmentation analyses were performed. […] FIG. 5.

[9] = tested on: AGS cells; assay: DNA fragmentation by agarose gel electrophoresis; type: cell-based, human; details: 15 μM, 24 h, FIG. 4
Description: DNA Extraction and Electrophoresis Analysis. The AGS human cancer cells were harvested, washed with phosphate-buffered saline (PBS), and then lysed with digestion buffer containing 0.5% sarkosyl, 0.5 mg/mL proteinase K, 50 mM tris(hydroxy methyl)aminomethan (pH 8.0), and 10 mM EDTA at 56° C. overnight and treated with RNase A (0.5 μg/mL) for 3 h at 56° C. The DNA was extracted by phenol/chloroform/isoamyl (25:24:1) before loading and was analyzed by 2% agarose gel electrophoresis. The agarose gels were run at 50 V for 120 min in Tris-borate/EDTA electrophoresis buffer (TBE). Approximately 20 μg of DNA was loaded in each well and visualized under UV light, and photographed.
as §5

| SMILES | apoptotic ratio ([1]; HT-29, 5 μM) | apoptotic ratio ([1]; HT-29, 10 μM) | apoptotic ratio ([1]; HT-29, 25 μM) | apoptotic ratio ([1]; HT-29, 50 μM) [%] | apoptotic ratio ([1]; HT-29, 100 μM) [%] | apoptotic ratio ([2]; COLO 205, 5 μM) [%] | apoptotic ratio ([2]; COLO 205, 10 μM) [%] | apoptotic ratio ([2]; COLO 205, 25 μM) [%] | apoptotic ratio ([2]; COLO 205, 50 μM) [%] | apoptotic ratio ([2]; COLO 205, 100 μM) [%] | apoptotic ratio ([3]; HL-60, 5 μM) [%] | apoptotic ratio ([3]; HL-60, 10 μM) [%] | apoptotic ratio ([3]; HL-60, 25 μM) [%] | apoptotic ratio ([3]; HL-60, 50 μM) [%] | apoptotic ratio ([3]; HL-60, 100 μM) | apoptotic ratio ([4]; 5 μM) [%] | apoptotic ratio ([4]; 10 μM) [%] | apoptotic ratio ([4]; 25 μM) [%] | apoptotic ratio ([4]; 50 μM) [%] | apoptotic ratio ([4]; 100 μM) [%] | other results |
| --- | --- | --- | --- | --- | --- | --- | --- | --- | --- | --- | --- | --- | --- | --- | --- | --- | --- | --- | --- | --- | --- |
| C=C1C(=O)OC2C=C(C)CCC=C(C)CC(O)C12 (stereo not drawn) [Compound 3, 4-hydroxy-3α,4,5,8,9,11α-hexahydro-6,10-dimethyl-3-methylene-cyclodeca[b]furan-2(3H)-one] | 13.58 ± 0.87% | 24.46 ± .88% | 66.54 ± 1.58% | 82.27 ± 1.68 | 87.02 ± 0.30 | 10.73 ± 2.31 | 14.12 ± 1.06 | 41.62 ± 6.34 | 89.11 ± 1.47 | 96.81 ± 0.51 | 9.82 ± 1.90 | 21.93 ± 2.81 | 77.57 ± 7.06 | 96.94 ± 0.57 | 98.29 ± 0.15% | 9.55 ± 3.05 | 8.66 ± 0.80 | 11.78 ± 1.40 | 15.95 ± 1.12 | 19.22 ± 0.57 | apoptotic ratio ([1]; HT-29, 25 μM, listed as NAB): 66.54%; apoptotic ratio ([2]; COLO 205, 25 μM, listed as NAB): 41.62%; apoptotic ratio ([3]; HL-60, 25 μM, listed as NAB): 77.54%; apoptotic ratio ([4]; 25 μM, listed as NAB): 11.78%; percentage of apoptotic AGS cells ([5]; 5 μM): 14%; percentage of apoptotic AGS cells ([5]; 10 μM): 27%; percentage of apoptotic AGS cells ([5]; 15 μM): 63%; percentage of apoptotic AGS cells ([5]; 25 μM): 86%; IC50 [6]: 56.1 µM; IC50 [7]: 27.4 µM |
| C=C1C(=O)O[C@H]2/C=C(\C)CC/C=C(\C)C[C@H](OC(C)=O)[C@@H]12 [Compound 4, acetyl neobritannilactone B] | 20.38 ± .17% | 47.56 ± 0.00% | 69.70 ± .22% | 81.43 ± 1.46 | 82.47 ± 2.06 | 15.47 ± 1.69 | 34.72 ± 2.72 | 76.87 ± 2.39 | 96.92 ± 0.20 | 98.66 ± 0.10 | 22.93 ± 1.34 | 39.71 ± 2.85 | 95.17 ± 1.61 | 97.74 ± 0.44 | 98.05 ± .30% | 6.16 ± 1.17 | 7.87 ± 3.03 | 9.89 ± 4.44 | 13.64 ± 0.28 | 43.11 ± 0.99 | apoptotic ratio ([1]; HT-29, 25 μM, listed as ANAB): 69.70%; apoptotic ratio ([2]; COLO 205, 25 μM, listed as ANAB): 76.87%; apoptotic ratio ([3]; HL-60, 25 μM, listed as ANAB): 95.17%; apoptotic ratio ([4]; 25 μM, listed as ANAB): 9.89%; morphological changes [8]: significant morphological changes and chromosomal condensation; percentage of apoptotic AGS cells ([5]; 5 μM): 24%; percentage of apoptotic AGS cells ([5]; 10 μM): 64%; percentage of apoptotic AGS cells ([5]; 15 μM): 81%; percentage of apoptotic AGS cells ([5]; 25 μM): 92%; IC50 [6]: 57 µM; IC50 [7]: 16.2 µM; DNA fragmentation (DNA ladders) [9]: significant DNA ladders were observed |
